# From patent publication US9724315B2, “Compounded transdermal pain management” (CMPD Licensing, LLC, priority 2011, dated 2017)
# Counter-ions that a name gives are not always drawn. Like-named read-outs stand apart in the source and are kept apart here.
# Settings: for percent permeation of applied dose beyond the stratum corneum: single dose, four drugs in combination; for time of (initial) peak flux after dose application: base composition Lipoderm ActiveMax, four drugs applied in combination; for mean flux of percutaneous absorption: ex vivo human trunk skin
# Method: An evaluation of the percutaneous absorption of ketamine HCL, gabapentin, clonidine HCL, and baclofen in both Lipoderm® and Lipoderm® ActiveMax™ into human trunk skin, in vitro, using the Franz skin finite dose model was performed. The study was designed to evaluate the percutaneous absorption harmacokinetics of ketamine HCL, gabapentin, clonidine HCL, and baclofen. Absorption was measured in human cadaver skin, in vitro, using the finite dose technique and Franz diffusion cells.
# Ketamine HCL 5% w/w, gabapentin 10% w/w, clonidine HCL 0.2% w/w and baclofen 2% w/w, in Lipoderm® and Lipoderm® ActiveMax, were tested on triplicate sections from three different cadaver skin donors for the percutaneous absorption of ketamine HCL, gabapentin, clonidine HCL, and baclofen over a 48-hour dose period. At pre-selected times after dose application, the dermal receptor solution was removed in its entirety, replaced with fresh receptor solution, and an aliquot saved for subsequent analysis. In addition, the epidermis and dermis were recovered and evaluated for drug content. The samples were analyzed for ketamine HCL, gabapentin, clonidine HCL, and baclofen content by High Performance Liquid Chromatography (HPLC)/MS.
# The model uses ex vivo animal, human cadaver, or surgical skin mounted in specially designed diffusion cells that allow the skin to be maintained at a temperature and humidity that match typical in vivo conditions. (See Franz, T. J., Percutaneous Absorption: On the Relevance of In Vitro Data. J. Invest. Dermatol, 1975, 64:190-195.)
# A finite dose (e.g., 4-7 mg/cm^2) of formulation may be applied to the outer surface of the skin and drug absorption may be measured by monitoring its rate of appearance in the receptor solution bathing the inner surface of the skin. Data defining total absorption, rate of absorption, as well as skin content may be accurately determined in this model. The method has historic precedent for accurately predicting in vivo percutaneous absorption kinetics. (See Franz T. J., The Cadaver Skin Absorption Mode and the Drug Development Process. Pharmacopeial Forum 34(5): 1349-1356, 2008; see also Franz T. J., Lehman P. A., and Raney S., Use of Excised Human Skin to Assess the Bioequivalence of Topical Products. Skin Pharmacol Physiol 22:276-286, 2009.)
# During the evaluation, percutaneous adsorption was measured using the in vitro cadaver skin finite dose technique. Human cadaver trunk skin without obvious signs of skin disease, obtained within approximately 24 to 48 hours of death, was used in this study. The skin was dermatomed, cryopreserved, sealed in a water-impermeable bag and stored at approximately −70° C. until the day of the experiment. Prior to use, the skin was thawed in approximately 37° C. water, then rinsed in water to remove any adherent blood or other material from the surface.
# Skin from three donors was cut into multiple smaller sections large enough to fit on an approximately nominal 0.8 cm^2 Franz diffusion cells. The dermal chamber was filled to capacity with a reservoir solution of phosphate-buffered isotonic saline (PBS), pH 7.4±0.1, with 0.1% Oleth-20 and 0.008% Gentamicin, and the epidermal cell (chimney) left open to ambient laboratory conditions. All cells were mounted in a diffusion apparatus in which the dermal bathing solution was stirred magnetically at approximately 600 RPM and the skin surface temperature maintained at 32.0°±1.0° C.
# To assure the integrity of each skin section, its permeability to tritiated water was determined before application of the test products. (See Franz T. J. and Lehman P. A., The Use of Water Permeability as a Means of Validation for Skin Integrity in In Vitro Percutaneous Absorption Studies. Abst. J. Invest. Dermatol 1990, 94:525.) Following a brief (0.5-1 hour) equilibrium period, ^3H2O (NEN, Boston, Mass., sp. Act. ˜0.5 μCi/mL) was layered across the top of the skin so that the entire exposed surface was covered (approximately 250 to 500 μL).
# [1] = Lipoderm ActiveMax base, four drugs simultaneously, intact
# [2] = Lipoderm ActiveMax base, about 1 hour after single application
# [3] = Lipoderm ActiveMax base, about 3 hours after single application
# [4] = Lipoderm ActiveMax base, about 6 hours after single application
# [5] = Lipoderm ActiveMax base, about 10 hours after single application
# [6] = Lipoderm ActiveMax base, about 18 hours after single application
# [7] = Lipoderm ActiveMax base, about 28 hours after single application
# [8] = Lipoderm ActiveMax base, about 40 hours after single application
SMILES,penetration of skin from the base composition [1],percent permeation of applied dose beyond the stratum corneum (Lipoderm ActiveMax base),percent permeation of applied dose beyond the stratum corneum (Lipoderm base),time of (initial) peak flux after dose application,mean flux using Lipoderm ActiveMax compared with Lipoderm,minimum mean flux using Lipoderm ActiveMax compared with Lipoderm,penetration of skin from the base composition,mean flux of percutaneous absorption [2],mean flux of percutaneous absorption [3],mean flux of percutaneous absorption [4],mean flux of percutaneous absorption [5],mean flux of percutaneous absorption [6],mean flux of percutaneous absorption [7],mean flux of percutaneous absorption [8],"maximum mean flux (Lipoderm ActiveMax base, single application, 48 hours)","mean flux using Lipoderm ActiveMax compared with Lipoderm (ketamine: most of the 48 hours, from about 2 hours, clonidine: about two to about 40 hours after application)","maximum mean flux using Lipoderm ActiveMax compared with Lipoderm (single application, 48 hours)"
NCC(CC(=O)O)c1ccc(Cl)cc1 (stereo not drawn) [baclofen],penetrate into and through ex vivo human trunk skin,approximately 5.5%,approximately 3.95%,approximately one,,,,,,,,,,,,,
"Clc1cccc(Cl)c1N=C1NCCN1 [clonidine, clonidine HCL]",,,,,exceed,exceeded,penetrate into and through ex vivo human trunk skin,approximately 0.005 μg/cm^2/hr,approximately 0.007 μg/cm^2/hr,approximately 0.006 μg/cm^2/hr,approximately 0.008 μg/cm^2/hr,approximately 0.008 μg/cm^2/hr,approximately 0.011 μg/cm^2/hr,approximately 0.011 μg/cm^2/hr,,,
NCC1(CC(=O)O)CCCCC1 [gabapentin],penetrate into and through ex vivo human trunk skin,approximately 2.6%,,approximately one,,,,,,,,,,,,,
"CNC1(c2ccccc2Cl)CCCCC1=O (stereo not drawn) [ketamine, ketamine HCL]",penetrate into and through ex vivo human trunk skin,approximately 53.4%,approximately 44.8%,,,,,approximately 0.75 μg/cm^2/hr,approximately 3.0 μg/cm^2/hr,approximately 4.1 μg/cm^2/hr,approximately 4.3 μg/cm^2/hr,approximately 2.4 μg/cm^2/hr,approximately 2.5 μg/cm^2/hr,approximately 1.9 μg/cm^2/hr,approximately 4.3 μg/cm^2/hr,exceed,exceeded
